Literature values as cited in US9623047B2, “Composition and method for improving gastrointestinal health of equine” (Photo Finish Supplements, LLC, priority 2012, dated 2017).

Tests used:
[1] = tested on: tooth pulp and periapical tissue; details: protective barrier in dental repair and treatment

Which results are given for `[Ca+2].[OH-].[OH-]` [Ca(OH)2, calcium hydroxide]?
anti-microbial action [1]: powerful anti-microbial action; effect on regrowth of damaged tissue [1]: significant stimulatory effect; DNA synthesis of tooth pulp cells (tooth pulp cells): increase
